For one test, the target named is BACE1 enzyme (Homo sapiens, UniProt P56817). Description: BACE1 cell-free assay (fluorescence polarization, synthetic APP substrate).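 On all read-outs here: soluble His-tagged BACE1 purified from transfected CHO-K1 cell media, biotinylated Oregon Green-labelled peptide substrate, 3 h at 37 °C, cleavage followed as change in fluorescence polarization.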 It is filed as biochemical. The following applies: for IC50: values marked b from a single determination; for activity against the BACE1 enzyme: statement in words, used to assign stereochemistry.
In test [1] the test system is sAPPβ levels in H4 human neuroglioma cells over-expressing wild-type human APP695. The test can be described thus: sAPPβ whole cell assay (in vitro sAPPb assay, TMB-ELISA). In kind it is cell-based. Background: An ELISA detects its analyte on a solid surface through an enzyme-linked reagent.
[2] abbreviates: geometric mean of 2-4 determinations.
Where [3] appears, read: Homo sapiens, 18 hours, geometric mean of 2-4 determinations, values marked b from a single determination.
Where [4] appears, read: geometric mean of 2-6 determinations.
The mark [5] stands for this setting: Homo sapiens, 18 hours, geometric mean of 2-6 determinations.
[6] abbreviates: Homo sapiens, 18 h, geometric mean of 2-4 determinations, values marked b from a single determination.

Structures can show the parent of a compound that is named as a salt.

BACE1 enzyme, sequence (P56817 46-501 limits assumed): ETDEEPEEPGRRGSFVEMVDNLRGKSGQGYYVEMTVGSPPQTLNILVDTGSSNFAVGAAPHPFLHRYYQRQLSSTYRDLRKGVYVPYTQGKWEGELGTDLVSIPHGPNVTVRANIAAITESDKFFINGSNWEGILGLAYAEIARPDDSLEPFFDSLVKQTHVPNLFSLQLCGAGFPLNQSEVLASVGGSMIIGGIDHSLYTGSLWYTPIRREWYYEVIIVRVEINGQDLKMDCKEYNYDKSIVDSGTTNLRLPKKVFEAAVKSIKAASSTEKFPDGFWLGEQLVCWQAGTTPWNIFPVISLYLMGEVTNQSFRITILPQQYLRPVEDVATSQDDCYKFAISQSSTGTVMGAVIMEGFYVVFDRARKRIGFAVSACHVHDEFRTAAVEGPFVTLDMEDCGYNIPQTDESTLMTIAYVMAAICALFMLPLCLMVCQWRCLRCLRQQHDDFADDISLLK

Consider `NC1=N[C@@]2(c3ccccc3F)CO[C@@H](COc3ccccn3)C[C@H]2CS1` [Example 8, (4aR,6R,8aS)-8a-(2-Fluorophenyl)-6-[(pyridin-2-yloxy)methyl]-4,4a,5,6,8,8a-hexahydropyrano[3,4-d][1,3]thiazin-2-amine], for which the IC50 was determined as 2.38 µM against BACE1 enzyme (setting [2]) and 239 nM in test [1] (setting [3]).

Consider `NC1=N[C@@]2(c3ccc(F)cc3F)CO[C@@H](CO)C[C@H]2CS1` [Example 3, [(4aR,6R,8aS)-2-Amino-8a-(2,4-difluorophenyl)-4,4a,5,6,8,8a-hexahydropyrano[3,4-d][1,3]thiazin-6-yl]methanol], for which the figures for the IC50 (against BACE1 enzyme (setting [2]); in test [1] (setting [3])) were 2.27 µM and 436 nM, respectively.

Turning to `NC1=N[C@@]2(c3ccccc3F)CO[C@@H](CO)C[C@H]2CS1` [Example 29], the IC50 on BACE1 enzyme (setting [4]) is 8.41 µM; in test [1] (setting [5]), 493 nM.

As for `NC1=N[C@@]2(c3ccccc3F)CO[C@@H](COc3cnccn3)C[C@H]2CS1` [Example 21, (4aR,6R,8aS)-8a-(2-Fluorophenyl)-6-[(pyrazin-2-yloxy)methyl]-4,4a,5,6,8,8a-hexahydropyrano[3,4-d][1,3]thiazin-2-amine, trifluoroacetic acid salt], the IC50 was 2.03 µM at BACE1 enzyme (setting [2]) and 23.1 nM in test [1] (setting [3]).

On to `NC1=N[C@@]2(c3ccc(O)cc3F)COCC[C@H]2CS1` (relative stereo) [Example 18, rel-4-[(4aR,8aS)-2-Amino-4,4a,5,6-tetrahydropyrano[3,4-d][1,3]thiazin-8a(8H)-yl]-3-fluorophenol, ammonium salt], for which the IC50 at BACE1 enzyme (setting [2]) was found to be 5.35 µM; in test [1] (setting [3]), 1000 nM.

With `NC1=N[C@@]2(c3ccccc3F)CO[C@@H](CF)C[C@H]2CS1` [Example 5, (4aR,6R,8aS)-6-(Fluoromethyl)-8a-(2-fluorophenyl)-4,4a,5,6,8,8a-hexahydropyrano[3,4-d][1,3]thiazin-2-amine], the IC50 amounted to 0.838 µM against BACE1 enzyme (setting [2]) and 83.4 nM in test [1] (setting [3]).

As to `COc1ccccc1[C@]12COCC[C@H]1CSC(N)=N2` (relative stereo) [Example 19, rel-(4aR,8aS)-8a-(2-Methoxyphenyl)-4,4a,5,6,8,8a-hexahydropyrano[3,4-d][1,3]thiazin-2-amine], the values for the IC50 (on BACE1 enzyme (setting [2]); in test [1] (setting [3])) were more than 100 µM and 4030 nM, respectively.

Regarding `CC(C)OC[C@H]1C[C@H]2CSC(N)=N[C@@]2(c2ccccc2F)CO1` [Example 2, (4aR,6R,8aS)-8a-(2-Fluorophenyl)-6-[(propan-2-yloxy)methyl]-4,4a,5,6,8,8a-hexahydropyrano[3,4-d][1,3]thiazin-2-amine, trifluoroacetate salt], the IC50 was found to be 0.396 µM against BACE1 enzyme (setting [2]) and 72.9 nM in test [1] (setting [3]).

With `COC[C@H]1C[C@H]2CSC(N)=N[C@@]2(c2ccccc2F)CO1` [Example 26], the values for the IC50 (on BACE1 enzyme (setting [4]); in test [1] (setting [5])) were 1.24 µM and 148 nM, respectively.

With `NC1=N[C@@]2(c3ccccc3F)CO[C@@H](COc3ccccc3)C[C@H]2CS1` [Example 7, (4aR,6R,8aS)-8a-(2-Fluorophenyl)-6-(phenoxymethyl)-4,4a,5,6,8,8a-hexahydropyrano[3,4-d][1,3]thiazin-2-amine], the IC50 was 0.826 µM on BACE1 enzyme (setting [2]) and 108 nM in test [1] (setting [3]).

Regarding `C[C@@H]1SC(N)=N[C@@]2(c3ccccc3F)COCC[C@@H]12` (racemic) [Example 28], the IC50 is 11.2 µM on BACE1 enzyme (setting [4]) and 445 nM in test [1] (setting [5]).

On to `NC1=N[C@@]2(c3ccccc3)COCC[C@H]2CS1` (relative stereo) [Example 14, rel-(4aR,8aS)-8a-Phenyl-4,4a,5,6,8,8a-hexahydropyrano[3,4-d][1,3]thiazin-2-amine], for which the IC50 against BACE1 enzyme (setting [2]) was found to be 10.4 µM; in test [1] (setting [3]), 477 nM.

`NC1=N[C@@]2(c3ccccc3OC(F)(F)F)COCC[C@H]2CS1` [Example 25] displayed an IC50 against BACE1 enzyme (setting [4]) of 87.9 µM.

As to `C[C@H]1SC(N)=N[C@@]2(c3ccccc3F)COCC[C@@H]12` (racemic) [Example 27], the values for the IC50 (against BACE1 enzyme (setting [4]); in test [1] (setting [5])) were 6.72 µM and 434 nM, respectively.

As for `NC1=N[C@@]2(c3ccccc3F)CO[C@@H](COc3ncccn3)C[C@H]2CS1` [Example 22, (4aR,6R,8aS)-8a-(2-Fluorophenyl)-6-[(pyrimidin-2-yloxy)methyl]-4,4a,5,6,8,8a-hexahydropyrano[3,4-d][1,3]thiazin-2-amine, trifluoroacetic acid salt], the IC50 is 8.03 µM against BACE1 enzyme (setting [2]) and 71.1 nM in test [1] (setting [3]).

In the case of `NC1=N[C@@]2(c3ccccc3F)COCC[C@H]2CS1` (racemic) [Example 23], the IC50 against BACE1 enzyme (setting [4]) stood at 7.95 µM; in test [1] (18 hours, geometric mean of 2-6 determinations) it was 436 nM.

Consider `NC1=N[C@@]2(c3ccc(F)cc3F)CO[C@@H](COCc3ccccc3)C[C@H]2CS1` [Example 6, (4aR,6R,8aS)-6-[(Benzyloxy)methyl]-8a-(2,4-difluorophenyl)-4,4a,5,6,8,8a-hexahydropyrano[3,4-d][1,3]thiazin-2-amine, trifluoroacetic acid salt], for which the IC50 was found to be 0.0323 µM against BACE1 enzyme (setting [2]) and 64.6 nM in test [1] (setting [3]).

Take `NC1=N[C@@]2(c3ccc(F)cc3)COCC[C@H]2CS1` (relative stereo) [Example 11, rel-(4aR,8aS)-8a-(4-Fluorophenyl)-4,4a,5,6,8,8a-hexahydropyrano[3,4-d][1,3]thiazin-2-amine]: the values for the IC50 (against BACE1 enzyme (setting [2]); in test [1] (setting [3])) were 7.52 µM and 380 nM, respectively.

Regarding `NC1=N[C@]2(c3ccc(F)cc3F)COCC[C@@H]2CS1` [Example 20, (4aS,8aR)-8a-(2,4-Difluorophenyl)-4,4a,5,6,8,8a-hexahydropyrano[3,4-d][1,3]thiazin-2-amine], the “activity against the BACE1 enzyme” value on BACE1 enzyme is “does not”. The IC50 in test [1] (setting [3]) is more than 27100 nM.

On to `Cc1ccc([C@]23COCC[C@H]2CSC(N)=N3)c(F)c1` (relative stereo) [Example 13, rel-(4aR,8aS)-8a-(2-Fluoro-4-methylphenyl)-4,4a,5,6,8,8a-hexahydropyrano[3,4-d][1,3]thiazin-2-amine, hydrochloride salt], for which the IC50 against BACE1 enzyme (setting [2]) worked out at 3.73 µM; in test [1] (setting [3]), 438 nM.

The compound `NC1=N[C@@]2(c3c(F)cccc3F)COCC[C@H]2CS1` (relative stereo) [Example 16, rel-(4aR,8aS)-8a-(2,6-Difluorophenyl)-4,4a,5,6,8,8a-hexahydropyrano[3,4-d][1,3]thiazin-2-amine] had an IC50 in test [1] (setting [6]) of 506 nM.

As for `C[C@H]1SC(N)=N[C@@]2(c3cc(Br)ccc3F)COCC[C@@H]12` (racemic) [Example 30], the IC50 on BACE1 enzyme (setting [4]) is 27.8 µM; in test [1] (setting [5]), 1650 nM.

Regarding `NC1=N[C@@]2(c3ccccc3F)CO[C@@H](COC(=O)c3ccccc3)C[C@H]2CS1` [Example 15, [(4aR,6R,8aS)-2-Amino-8a-(2-fluorophenyl)-4,4a,5,6,8,8a-hexahydropyrano[3,4-d][1,3]thiazin-6-yl]methyl benzoate], the IC50 was 13 µM against BACE1 enzyme (setting [2]) and 492 nM in test [1] (setting [3]).

In the case of `CCOC[C@H]1C[C@H]2CSC(N)=N[C@@]2(c2ccccc2F)CO1` [Example 9, (4aR,6R,8aS)-6-(Ethoxymethyl)-8a-(2-fluorophenyl)-4,4a,5,6,8,8a-hexahydropyrano[3,4-d][1,3]thiazin-2-amine, trifluoroacetic acid salt], the values for the IC50 (at BACE1 enzyme (setting [2]); in test [1] (setting [3])) were 0.914 µM and 80 nM, respectively.

Regarding `NC1=N[C@@]2(c3ccccc3F)COCC[C@H]2CS1` (relative stereo) [Example 12, rel-(4aR,8aS)-8a-(2-Fluorophenyl)-4,4a,5,6,8,8a-hexahydropyrano[3,4-d][1,3]thiazin-2-amine], the IC50 at BACE1 enzyme (setting [2]) is 7.95 µM; in test [1] (setting [6]), 436 nM.

Take `NC1=N[C@@]2(c3ccc(Cl)cc3F)COCC[C@H]2CS1` (relative stereo) [Example 17, rel-(4aR,8aS)-8a-(4-chloro-2-Fluorophenyl)-4,4a,5,6,8,8a-hexahydropyrano[3,4-d][1,3]thiazin-2-amine, hydrochloride salt]: the IC50 stood at 10.2 µM against BACE1 enzyme (setting [2]) and 775 nM in test [1] (setting [3]).

Regarding `NC1=N[C@@]2(c3ccccc3F)COCC[C@H]2CS1` [Example 24], the IC50 on BACE1 enzyme (setting [4]) came out at 4.54 µM; in test [1] (Homo sapiens, 18 h, geometric mean of 2-6 determinations), 452 nM.

In the case of `C[C@H]1SC(N)=N[C@@]2(c3cc(-c4cncnc4)ccc3F)COCC[C@@H]12` (racemic) [Example 31], the concentration for half-maximal inhibition (IC50) on BACE1 enzyme (setting [4]) was 3 µM; in test [1] (setting [5]) it was 112 nM.

On to `NC1=N[C@@]2(c3ccc(F)cc3F)COCC[C@H]2CS1` [Example 1, (4aR,8aS)-8a-(2,4-Difluorophenyl)-4,4a,5,6,8,8a-hexahydropyrano[3,4-d][1,3]thiazin-2-amine], for which the “activity against the BACE1 enzyme” value at BACE1 enzyme is reported as “displays activity against the BACE1 enzyme”. Moreover, it took 211 nM to reach half-maximal inhibition in test [1] (setting [3]) (IC50).

In general, IC50 refers to the concentration that inhibits the measured activity by half.

The values are drawn from patent US8933221B2, “Hexahydropyrano[3,4-d][1,3]thiazin-2-amine compounds” (Pfizer Inc., priority 2011, dated 2015).
